The values below come from US5447869A, “Method of detecting bitter or odorous substances and apparatus therefor” (Sogo Pharmaceutical Company Limited, priority 1987, dated 1995).

Series [1] relates to tadpole. Kind of series: Anesthetic potency obtained by use of a tadpole. In kind it is in vivo. The settings on record: Table 6; potency converted to gaseous system; partial pressure ratio, methanol as 1.00.
Series [2] relates to tadpole. Conditions: cited from earlier work.
In series [3] the test system is tadpole. Kind of series: Anesthetic potency obtained by use of a tadpole. Conditions: in vivo. The text has this: In Table 3, potency is a value representing intensity of the anesthetics and is shown as values obtained by use of a tadpole.
Series [4] can be described thus: Adsorption from aqueous phase on uncoated crystal oscillator.
Series [5] in a line: Adsorption from aqueous phase on polyvinyl alcohol film.
Series [6] is described as follows: Adsorption from aqueous phase on polystyrene film.
Series [7] is described as follows: Adsorption from aqueous phase on poly(methyl-L-glutamate) film.
For series [8] the following is noted: for Adsorbed amounts / Frequency Changes -ΔF: Example 9, 2C18 N^+ 2C1 /PSS^-, halothane 9.48×10^-4 M aqueous.
Protocol: In FIG. 6, the immobilized bilayer film is cast on a silver-deposited electrode 2 of the crystal oscillator 1 [or on both sides of a silver-electrode-deposited piezoelectric crystal (9 MHz; AT-cut)] and dipped into deionized water in cell 3, bitter or odorous substances are injected thereinto as a solution thereof through an irritant-injecting device 4, frequency changes after the injection are measured by a frequency measuring means (not shown) constituting the crystal oscillator 1, and adsorbed amounts of bitter or odorous substances onto the immobilized bilayer film are determined from proportionality thereof to the frequency changes thus obtained.
The partition coefficient means a ratio of the adsorbed amount of an irritant such as the bitter or odorous substance or the like onto the immobilized bilayer film to an amount by weight of the irritant such as the bitter or odorous substance or the like in the aqueous solution of a constant volume.
Since frequency changes of 10 Hz or less are considered to be within errors in measurements, the concentration at the frequency change of 10 Hz is defined as a concentration threshold value.
The conditions of series [9]: Comparative Example 6; Polyvinyl chloride, 45° C.; halothane 9.48×10^-4 M.
The conditions of series [10]: Example 10; Cholesterylammonium poly(p-styrenesulfonate); halothane 9.48×10^-4 M.
For series [11] the following is noted: gas phase.
Description: At point B in FIG. 9, the coated crystal oscillator or crystal is removed from the cell into atmosphere with the result that the frequency reverts soon to the same as at point A in FIG. 9, at which the coated crystal oscillator or crystal is placed in the cell. […] In the determination of adsorbed amounts from frequency changes thus obtained, the adsorbed amount is represented in terms of partition coefficient obtained by dividing the adsorbed amount by the total weight of the odorous substance molecules actually existing in the gas phase in order to cancel differences in vapor pressure in the gas phase.
The conditions of series [12]: Example 11; CTAB^+ /PSS^-; halothane 9.48×10^-4 M.
[13] abbreviates: Table 3, tadpole, intensity of the anesthetic.
Setting [14] is: Table 6, concentration ratio of aqueous solution, methanol as 1.00.
[15] abbreviates: Comparative Example 7, Polyvinyl alcohol, 45° C., halothane 9.48×10^-4 M.
Setting [16] is: Comparative Example 5, Polystyrene, 45° C., halothane 9.48×10^-4 M.
Setting [17] is: Comparative Example 8, PMLG, halothane 9.48×10^-4 M.

Like-named read-outs stand apart in the source and are kept apart here.

Consider `CCCCO` [1-butanol], for which the Potency atm in the series with tadpole [1] is reported as 9.41 × 10^2.
Consider `CCCCCCCCCCO` [1-decanol], for which the Potency atm with tadpole [1] is recorded as 1.11 × 10^9. In the series with tadpole [2] (setting [13]), the Potency is on record as 1.00 × 10^5.
Consider `CCCCCCO` [1-hexanol], for which the Potency with tadpole [2] (setting [13]) is reported as 1.12 × 10^3.
For `CCCCCCCCCO` [1-nonanol], the Potency atm in the series with tadpole [3] is on record as 2.51 × 10^8. For the same molecule, the Potency with tadpole [2] (setting [13]) was 4.03 × 10^4.
For `CCCCCCCCO` [1-octanol], in the series with tadpole [3], the Potency atm is 1.21 × 10^7. For the same molecule, the Potency in the series with tadpole [2] (setting [13]) is listed as 7.93 × 10^3.
`O=C1C[C@@H]2OCC=C3CN4CC[C@]56c7ccccc7N1[C@H]5[C@H]2[C@H]3C[C@H]46` [Strychnine, strychnine]: the “frequency changes due to adsorption” value in series [4] (Comparative Example 3, uncoated, regardless of temperature, FIG. 12) is “little or no frequency changes”; in series [6] (Comparative Example 4, polystyrene-coated, regardless of temperature, FIG. 12), “very little frequency changes”. Moreover, the “Partition Coefficient” value in series [4] (Table 2, coating: None) was 0.03 10^-3; in series [5] (Table 2, coating: Polyvinyl alcohol film) it was 0.03 10^-3; in series [6] (Table 2, coating: Polystyrene film), 0.05 10^-3; in series [7] (Table 2, coating: Polymethyl-L-glutamate film), 0.02 10^-3.
As for `CC(C)=O` [acetone], the Potency atm in the series on tadpole [1] was 1.76. The Potency in the series on tadpole [2] (setting [13]) and in the series on tadpole [2] (setting [14]) was 3.47 in each case.
For the molecule `OCc1ccccc1` [benzylalcohol], the Potency atm with tadpole [3] is 6.25 × 10^5. In the series on tadpole [2] (setting [13]), the Potency is 5.01 × 10^2.
Regarding `ClC(Cl)Cl` [chloroform], the Potency atm in the series on tadpole [1] was 4.62 × 10^2. Moreover, the Potency in the series on tadpole [2] (setting [13]) was 7.62 × 10^2.
Turning to `CCOCC` [diethyl ether], the Potency atm with tadpole [1] was found to be 6.43.
`CCO` [ethanol]: in the series on tadpole [1], the Potency atm stood at 5.19. Also, the Potency with tadpole [2] (setting [13]) and with tadpole [2] (setting [14]) was 2.43 each time.
`FC(F)(F)C(Cl)Br` (centres unmarked) [halothane]: the Adsorbed amounts in series [8] (20° C.) amounted to 101 ng; in [8] (45° C.), 318 ng; in [9], 74 ng; in series [10], 82 ng; in series [5] (setting [15]), 53 ng; in series [6] (setting [16]), 74 ng. Besides, the Adsorbed amounts worked out at 176 ng in series [7] (setting [17]) and 249 ng in series [12]. For the same molecule, the “Frequency Changes -ΔF” value in [8] (20° C.) came out at 96 Hz; in series [8] (45° C.), 303 Hz; in [9], 70 Hz; in series [10] it was 78 Hz; in series [5] (setting [15]), 50 Hz; in series [6] (setting [16]), 70 Hz. Besides, the “Frequency Changes -ΔF” value in [7] (setting [17]) was 168 Hz; in [12], 237 Hz. Further, the “adsorbed amount versus film thickness” value in series [8] (Example 14, aqueous, 45° C., halothane 3.00×10^-4 M, FIG. 19) is on record as “increased with increased film thickness”. The Potency atm in the series on tadpole [3] is 1.72 × 10^3. The Potency with tadpole [2] (setting [13]) is recorded as 4.47 × 10^3. The “adsorption amount versus film thickness” value in [11] (Example 20, 25° C., 2 μl halothane, FIG. 23) is recorded as “linearly increased”.
Consider `CCCCCC` [hexane], for which the Potency atm in the series on tadpole [1] was 5.21 × 10^4. In addition, in the series with tadpole [2] (setting [13]), the Potency is listed as 6.75 × 10^4.
As for `CO` [methanol], the Potency in the series with tadpole [2] (setting [13]) and in the series with tadpole [2] (setting [14]) was 1.00 each time.
Regarding `COC(F)(F)C(Cl)Cl` [methoxyflurane], the Potency atm with tadpole [3] is on record as 1.82 × 10^4. Also, the Potency with tadpole [2] (setting [13]) is given as 4.86 × 10^3.
As to `CC1OC(C)OC(C)O1` (centres unmarked) [paraldehyde], in the series on tadpole [3], the Potency atm is reported as 8.20 × 10^2.
With `CCCCC` [pentane], the Potency atm in the series with tadpole [3] is given as 3.34 × 10^3. Moreover, in the series on tadpole [2] (setting [13]), the Potency is on record as 1.51 × 10^4.
For the molecule `CC(=O)/C=C/C1=C(C)CCCC1(C)C` [β-ionone], the reversibility of adsorption entry in series [8] (45° C., strychnine 58.3 μM, β-ionone 125 μM, FIG. 7, FIG. 8) was “reversible”. In series [11] (Example 6, FIG. 9), the “frequency change in saturated vapor” value is “the frequency rapidly decreases and then becomes constant soon”.
